Test results published in patent publication US20170119776A1, “CHIRAL 2,5-DISUBSTITUTED CYCLOPENTANECARBOXYLIC ACID DERIVATIVES AND USE THEREOF” (BAYER PHARMA AKTIENGESELLSCHAFT, priority 2014, published 2017).

What was measured:
[1] = Pharmacokinetic investigations in vivo, mouse; conditions: Mouse (C57BL/6)
Protocol: (§1) The substance to be examined is administered to rats, mice or dogs intravenously as a solution (for example in corresponding plasma with a small addition of DMSO or in a PEG/ethanol/water mixture), and peroral administration is effected as a solution (for example in Solutol/ethanol/water or PEG/ethanol/water mixtures) or as a suspension (e.g. in a water/tylose mixture), in each case via a gavage. After administration of the substance, blood is taken from the animals at fixed times. The blood is heparinized, then plasma is obtained therefrom by centrifugation. The test substance is quantified analytically in the plasma via LC-MS/MS. From the plasma concentration/time plots determined in this way, using an internal standard and with the aid of a validated computer program, the pharmacokinetic parameters, such as AUC (area under the concentration/time curve), Cmax (maximum plasma concentration), t1/2 (half life), VSS (distribution volume) and CL (clearance), and the absolute and relative bioavailability F and Frel (i.v./p.o. comparison or comparison of suspension to solution after p.o. administration), are calculated.

[2] = Pharmacokinetic investigations in vivo, dog; conditions: Dog (Beagle)
Protocol: as §1

[3] = plasma, iv, read-out: CLPlasma CLblood (converted)
[4] = plasma, po, p.o., read-out: t1/2 p.o. (converted)

- F ([1]; bioavailability from solution): 84%
- AUCnorm i.v. ([1]; i.v.): 44.6 kg·h/L
- clearance [1, 3]: 0.367 mL/min/kg
- half-life [1, 4]: 5 h
- F ([2]; bioavailability from solution): 100%
- AUCnorm i.v. ([2]; i.v.): 10.6 kg·h/L
- clearance [2, 3]: 1.57 mL/min/kg
- half-life [2, 4]: 14.4 h
Compound: O=C(O)[C@H]1[C@H](Cn2nnc3ccccc3c2=O)CC[C@@H]1C(=O)c1ccc(OCc2ccccc2)cc1 [Example 2, (+)-(1S,2S,5R)-2-[4-(Benzyloxy)benzoyl]-5-[(4-oxo-1,2,3-benzotriazin-3(4H)-yl)methyl]cyclopentanecarboxylic acid]
